Data on 10 compounds can be found in patent US10160747B2, “Compounds and methods for kinase modulation, and indications therefor” (Plexxikon Inc., priority 2016, dated 2018).

In experiment [1] the target is T1, BaF3-FLT3-ITD-D835V (Homo sapiens, UniProt P36888, D835V, cells depend on it, form not given).
T1 sequence (P36888 with tags, fused parts or gaps INS600HVDFREYEYD/D835V): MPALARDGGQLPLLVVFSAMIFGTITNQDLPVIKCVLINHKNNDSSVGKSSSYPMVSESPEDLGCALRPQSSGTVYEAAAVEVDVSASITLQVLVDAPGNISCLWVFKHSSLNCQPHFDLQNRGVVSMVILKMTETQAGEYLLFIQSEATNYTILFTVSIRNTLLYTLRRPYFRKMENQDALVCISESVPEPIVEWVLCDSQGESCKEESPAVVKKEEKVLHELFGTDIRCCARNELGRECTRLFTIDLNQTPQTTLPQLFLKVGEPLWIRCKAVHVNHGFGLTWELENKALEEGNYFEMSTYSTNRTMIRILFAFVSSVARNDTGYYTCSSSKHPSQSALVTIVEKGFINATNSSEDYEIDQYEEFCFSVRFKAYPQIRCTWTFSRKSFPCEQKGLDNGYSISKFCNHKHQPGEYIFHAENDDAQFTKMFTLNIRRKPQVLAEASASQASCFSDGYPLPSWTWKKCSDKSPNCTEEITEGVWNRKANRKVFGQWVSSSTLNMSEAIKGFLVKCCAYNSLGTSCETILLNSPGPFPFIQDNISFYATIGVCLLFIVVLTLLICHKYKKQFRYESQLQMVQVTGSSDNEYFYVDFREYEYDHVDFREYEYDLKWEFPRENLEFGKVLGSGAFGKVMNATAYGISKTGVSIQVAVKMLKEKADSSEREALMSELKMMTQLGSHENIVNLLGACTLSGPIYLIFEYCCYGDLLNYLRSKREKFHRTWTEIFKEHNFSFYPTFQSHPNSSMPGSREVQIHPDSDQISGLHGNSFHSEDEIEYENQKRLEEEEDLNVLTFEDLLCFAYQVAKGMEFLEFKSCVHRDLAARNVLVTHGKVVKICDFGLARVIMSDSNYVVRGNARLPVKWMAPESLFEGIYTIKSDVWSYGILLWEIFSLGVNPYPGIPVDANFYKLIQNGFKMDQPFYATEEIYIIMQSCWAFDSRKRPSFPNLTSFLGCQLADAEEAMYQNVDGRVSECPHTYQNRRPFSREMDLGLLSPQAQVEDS
In words: Cell Assay CS0048: BaF3-FLT3-ITD-D835V CTB. The class given is cell-based, murine. The following applies: three day growth assay in the absence of IL3; read-out: Cell Assay: CS0048: BaF3-FLT3-ITD-D835V CTB:IC50. From the text:
(§1) The BaF3 assays as developed used to generate the data in Tables 7 and 8 are identical and differ only in minor details in regards to vector design, not biological function. Both introduce the FLT3 gene with MV4-11 based ITD duplications and resistance mutations from an exogenous promoter (MSCV and CMV respectively) in the exact same cell line.
(§2) As a result of the expressed FLT3 protein, the IL3 factor dependent BaF3 cell clones become IL3-factor independent.
(§3) The compounds in Tables 7 and 8 were tested in an identical fashion by incubating such clones in with increasing concentrations. Inhibition of the FLT3 activity by an inhibitor results in factor dependency, which in the absence of IL3 results in cell death in the three day growth assays.

The target in experiment [2] is T2, BaF3-FLT3-ITD-F691L (Homo sapiens, UniProt P36888, F691L, cells depend on it, form not given).
T2 sequence (P36888 with tags, fused parts or gaps INS600HVDFREYEYD/F691L): T1 sequence (P36888 with tags, fused parts or gaps INS600HVDFREYEYD/D835V) with F701L, V845D
In words: Cell Assay CS0047: BaF3-FLT3-ITD-F691L CTB. The class given is cell-based, murine. The following applies: three day growth assay in the absence of IL3; read-out: Cell Assay: CS0047: BaF3-FLT3-ITD-F691L CTB:IC50.
Description: as §1, §2, §3

In experiment [3] the test system is leukemia cell that express either wild type FLT3 or FLT3-ITD mutations. The following applies: cells expressing wild type FLT3 or FLT3-ITD mutations; cited from earlier work.
Experiment [4] has as its target T3, BaF3_FLT3_ITD/F691L (Homo sapiens, UniProt P36888, F691L, cells depend on it, form not given).
T3 sequence (P36888 with tags, fused parts or gaps INS600HVDFREYEYD/F691L): T1 sequence (P36888 with tags, fused parts or gaps INS600HVDFREYEYD/D835V) with F701L, V845D
As to the kind of experiment: Engineered BaF3 cell growth assay, FLT3 ITD/F691L. The class given is cell-based, murine. To be noted: three day growth assay in the absence of IL3. The source says:
The FLT3 inhibitors may be assessed using the MOLM-14, Acute Myeloid Leukemia cell line that endogenously expresses FLT3 ITD or derivatives of the human FLT3 AML cell line which acquired the D835Y (activation loop) of F691L (gatekeeper) mutation after selection in escalating doses of the FLT3 Inhibitor AC220. FLT3 inhibitors may also be assessed using cells that are engineered to express mutant FLT3. For engineered cells, murine Ba/F3 cells were transfected with full-length FLT3 ITD/D835Y mutations. The parental BA/F3 cells are dependent upon Interleukin-3 (IL-3) for survival, and introduction of the FLT3 constructs rendered these cells dependent upon FLT3 kinase activity when cultured in the absences of IL-3. Engineered BA/F3 cell growth assays can be performed in either the […] of IL-3, to assess the compound inhibition of FLT3 or to detect the presence of off-target activity, respectively. Inhibitors of FLT3 kinase activity reduce or eliminate the FLT3 oncogenic signaling, resulting in reduced cell proliferation. This inhibition is measured as a function of compound concentration to assess IC50 values.
Cells were seeded at 1×10^4 cells per well of a 96 well cell culture plate in 50 μl of cell culture medium. Compounds were dissolved in DMSO, typically at a concentration of 0.5 mM and were serially diluted 1:3 for a total of eight points and added to the cells to final concentrations of […], 0.0041, 0.0014 and 0.00046 μM in 100 μl cell culture medium (final concentration 0.2% DMSO). […] The cells were incubated at 37° C., 5% CO2 for three days. CellTiter-Glo Buffer (Promega Cell Viability Assay catalog #G7573) and substrate were equilibrated to room temperature, and enzyme/substrate Recombinant Firefly Luciferase/Beetle Luciferin was reconstituted. […] The plates were read on a Tecan M1000 using Luminescence protocol modified to read 0.1 s per well. The luminescence reading assesses the ATP content, which correlates directly with cell number such that the reading as a function of compound concentration was used to determine the IC50 value. […]

In experiment [5] the target is T4, BA/F3-FLT3-ITD + D835Y (Homo sapiens, UniProt P36888, D835Y, cells depend on it, form not given).
T4 sequence (P36888 with tags, fused parts or gaps INS600HVDFREYEYD/D835Y): T1 sequence (P36888 with tags, fused parts or gaps INS600HVDFREYEYD/D835V) with V845Y
As to the kind of experiment: Engineered BA/F3 cell growth assay, FLT3 ITD/D835Y. The class given is cell-based, murine. The following applies: three day growth assay in the absence of IL3; read-out: BaF3_FLT3_ITD/D835Y. In a few lines: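 IC50 derived from CellTiter-Glo ATP luminescence after 3 days at 37 °C, 5% CO2, over eight 1:3 dilutions from 1 μM (0.2% DMSO final). Cells: IL-3-independent murine Ba/F3 expressing full-length FLT3 ITD/D835Y, 1×10^4 per well.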

Experiment [6] relates to quizartinib resistance-causing mutants. To be noted: FLT3-ITD KD mutants, in addition to other mutant isoforms; cited from earlier work.

Positions count from the first letter of the chain named.

Consider `CC(C)(c1cc(NC(=O)Cc2ccc(-c3ccc(NCCN4CCOCC4)nc3)cc2)no1)C(F)(F)F`, for which the GI50 in experiment [1] was 145 nM; in experiment [2] it was 73.9 nM.

With `CNc1ccc(-c2ccc(CC(=O)Nc3cc(C(C)(C)C)on3)cc2)cn1`, the GI50 in experiment [1] was found to be 92 nM; in experiment [2], 43.2 nM.

On to `CCNc1ccc(-c2ccc(CC(=O)Nc3cc(C(C)(C)C)on3)cc2)cn1`, for which the GI50 in experiment [1] amounted to 94.2 nM; in experiment [2] it was 45.4 nM.

For the compound `CC(C)(C)c1cc(NC(=O)Nc2ccc(-c3cnc(NC4CCOCC4)nc3)cn2)no1`, the GI50 in experiment [1] came out at 673 nM; in experiment [2], 110 nM.

As for `CC(C)(C)c1cc(NC(=O)Nc2ccc(-c3cnc(NC4CC4)nc3)cn2)no1`, the figures for the GI50 in experiment [1] and in experiment [2] were 585 nM and 77.8 nM, respectively.

For `C=CCNC1=C2C[C@@H](C)C[C@H](OC)[C@H](O)[C@@H](C)/C=C(\C)[C@H](OC(N)=O)[C@@H](OC)/C=C\C=C(/C)C(=O)NC(=CC1=O)C2=O` [17″AAG, 17AAG], the “growth of leukemia cells” value in experiment [3] is given as “inhibited”.

As for `Cn1cc(Nc2ncc(-c3ccc(CC(=O)Nc4ccnc(C(F)(F)F)c4)cc3)cn2)cn1` [drawing 325], the values for the GI50 in experiment [4] and in experiment [5] were 0.313 nM and 0.108 nM, respectively.

As for `Cn1cc(Nc2ncc(-c3ccc(CC(=O)Nc4cccc(C(F)(F)F)c4)cc3)cn2)cn1` [drawing 326], the values for the GI50 in experiment [4] and in experiment [5] were 1.54 nM and 0.462 nM, respectively.

On to `Cn1cc(Nc2ncc(-c3ccc(CC(=O)Nc4ccc(C(C)(C)C)nc4)cc3)cn2)cn1` [drawing 327], for which the GI50 in experiment [4] was found to be 0.434 nM; in experiment [5], 0.444 nM.

With `CNC(=O)c1cc(Oc2ccc(NC(=O)Nc3ccc(Cl)c(C(F)(F)F)c3)cc2)ccn1` [sorafenib], the “activity against identified quizartinib resistance-causing mutants” value in experiment [6] is reported as “ineffective”.
